In patent publication US12448368B2, “Indole compounds as androgen receptor modulators” (NIDO BIOSCIENCES, INC., priority 2020, dated 2025) one finds IC50 data, which are given here for 62 compounds.

The experiment has as its target T1, androgen receptor (AR) (Homo sapiens, UniProt P10275, T878A).
T1 construct: LNCaP cells expressing ARR2PB-FireflyLuc and CMV-RenillaLuc; endogenous in cells; host or cells: LNCaP cells carrying ARR2PB-FireflyLuc and CMV-RenillaLuc reporters
T1 sequence (P10275 1-920 T878A): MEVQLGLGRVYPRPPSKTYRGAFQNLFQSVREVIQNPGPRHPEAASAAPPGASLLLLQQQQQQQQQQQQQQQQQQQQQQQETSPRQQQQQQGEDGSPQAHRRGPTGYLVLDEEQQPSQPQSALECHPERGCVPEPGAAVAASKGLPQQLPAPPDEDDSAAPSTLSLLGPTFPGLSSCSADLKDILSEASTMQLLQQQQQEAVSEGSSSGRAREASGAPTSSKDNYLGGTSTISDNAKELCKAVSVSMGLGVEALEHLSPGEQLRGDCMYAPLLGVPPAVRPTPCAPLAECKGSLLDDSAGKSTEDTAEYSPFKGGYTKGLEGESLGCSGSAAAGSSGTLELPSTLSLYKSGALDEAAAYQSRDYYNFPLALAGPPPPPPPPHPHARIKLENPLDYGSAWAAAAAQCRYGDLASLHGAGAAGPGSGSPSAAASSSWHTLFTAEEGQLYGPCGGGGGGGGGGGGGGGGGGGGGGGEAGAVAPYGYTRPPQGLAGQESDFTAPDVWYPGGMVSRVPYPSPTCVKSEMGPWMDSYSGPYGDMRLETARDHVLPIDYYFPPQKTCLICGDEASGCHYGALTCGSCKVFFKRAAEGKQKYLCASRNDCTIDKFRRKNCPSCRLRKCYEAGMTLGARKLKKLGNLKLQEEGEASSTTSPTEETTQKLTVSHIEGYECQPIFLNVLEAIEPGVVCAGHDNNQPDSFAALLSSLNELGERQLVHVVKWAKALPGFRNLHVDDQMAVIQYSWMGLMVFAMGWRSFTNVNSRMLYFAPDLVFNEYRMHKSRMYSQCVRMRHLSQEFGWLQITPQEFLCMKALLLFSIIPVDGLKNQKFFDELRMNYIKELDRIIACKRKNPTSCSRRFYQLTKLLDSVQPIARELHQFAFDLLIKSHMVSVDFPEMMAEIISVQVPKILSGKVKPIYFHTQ
Description: AR reporter assay in LNCaP cells expressing ARR2PB-FireflyLuc and CMV-RenillaLuc, antagonist mode (% remaining activity, IC50). It is filed as cell-based. Conditions: 48 h at 37° C., class symbols A-D, read-out: IC50. The method in brief:
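LNCaP cells carrying ARR2PB-firefly and CMV-Renilla luciferase reporters were treated 48 h at 37 °C with compound plus 0.5 nM DHT. Signals were normalised between 0.5 nM DHT alone and 10 uM enzalutamide + DHT to give % remaining activity, and IC50 was obtained by non-linear regression.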
In general terms: In a reporter assay the amount or activity of a reporter protein is the signal.
A word on the IC50: it is the midpoint of a concentration-inhibition curve. Consider `Cc1nc(-c2c[nH]c3c(C#N)cccc23)cnc1OC1CC(N)C1` (centres unmarked) [Compound 274], for which the IC50 lay within 100 to 1000 nM.

With `Cc1nc(-c2c[nH]c3c(C#N)cccc23)cnc1OC1CCC(N)C1` (centres unmarked) [Compound 275], the IC50 is over 10000 nM.

Take `CC(=O)N1CCC(Oc2ncc(-c3n[nH]c4c(Cl)cccc34)nc2C)C1` (centres unmarked) [Compound 276]: the IC50 lay in the range of 100 to 1000 nM.

As for `Cc1nc(-c2n[nH]c3c(Cl)cccc23)cnc1OC1CCNC1` (centres unmarked) [Compound 277], the IC50 is 100 to 1000 nM.

On to `COc1nc(-c2c[nH]c3c(C#N)cccc23)cnc1OC1CCN(C(C)=O)C1` (centres unmarked) [Compound 278], for which the IC50 is 1000 to 10000 nM.

For `Cc1nc(-c2c[nH]c3c(C#N)cccc23)cnc1NCC(C)(C)O` [Compound 279], the IC50 was 100 to 1000 nM.

As to `COc1nc(-c2c[nH]c3c(C#N)cccc23)cnc1NCC(C)(C)O` [Compound 280], the half-maximal inhibitory concentration (IC50) was in the range of 100 to 1000 nM.

For the compound `Cc1nc(-c2c[nH]c3c(C#N)cccc23)cnc1SC1CCNC1` (centres unmarked) [Compound 281], the IC50 fell in the range of 1000 to 10000 nM.

Regarding `N#Cc1cccc2c(-c3cnc(OC4CCNC4)c(C4CC4)n3)c[nH]c12` (centres unmarked) [Compound 282], the IC50 is 1000 to 10000 nM.

`Cc1nc(-c2c[nH]c3c(C#N)cccc23)cnc1OC1CCNC1(C)C` (centres unmarked) [Compound 283]: the concentration for half-maximal inhibition (IC50) was over 10000 nM.

As to `Cc1nc(-c2c[nH]c3c(C#N)cccc23)cnc1OC1CNC(C)(C)C1` (centres unmarked) [Compound 284], the IC50 is over 10000 nM.

Consider `Cc1nc(-c2c[nH]c3c(C#N)cccc23)cnc1O[C@H]1CCN[C@@H]1C` [Compound 285], for which the IC50 is 1000 to 10000 nM.

Regarding `Cc1nc(-c2c[nH]c3c(C#N)cccc23)cnc1OCC(C)(C)N` [Compound 286], the IC50 was 1000 to 10000 nM.

With `Cc1nc(-c2c[nH]c3c(C#N)cccc23)cnc1OC(C)CN` (centres unmarked) [Compound 287], the 50% inhibitory concentration (IC50) lay in the range of 100 to 1000 nM.

On to `COc1nc(-c2c[nH]c3c(C#N)cccc23)cnc1N[C@H]1CCN(C(C)=O)C1` [Compound 288], for which the IC50 is under 100 nM.

For `COc1nc(-c2c[nH]c3c(C#N)cccc23)cnc1N[C@@H]1CCN(C(C)=O)C1` [Compound 289], the IC50 is under 100 nM.

As for `CC(=O)N1CCC(Oc2cnc(-c3c[nH]c4c(C#N)cccc34)cn2)C1` (centres unmarked) [Compound 290], the half-inhibitory concentration (IC50) lay in the range of 1000 to 10000 nM.

With `CC(=O)N1CCC(Oc2ncc(-c3c[nH]c4c(F)cccc34)nc2C)C1` (centres unmarked) [Compound 291], the IC50 lay within 100 to 1000 nM.

`CC(=O)N1CCC(Oc2ncc(-c3c[nH]c4ncccc34)nc2C)C1` (centres unmarked) [Compound 292]: the IC50 is over 10000 nM.

Consider `COc1nc(-c2c[nH]c3ncccc23)cnc1NC1CCN(C(C)=O)C1` (centres unmarked) [Compound 293], for which the IC50 is over 10000 nM.

With `COc1nc(-c2c[nH]c3c(C#N)cccc23)cnc1N(C)C1CCN(C(C)=O)C1` (centres unmarked) [Compound 294], the IC50 lay within 100 to 1000 nM.

`CC1(C)NC(=O)c2ccc(-c3c[nH]c4c(F)cccc34)nc21` [Compound 295]: the IC50 was in the range of 100 to 1000 nM.

On to `Cc1nc(-c2c[nH]c3c(Cl)cccc23)cnc1OC1CCNC1` (centres unmarked) [Compound 296], for which the IC50 is under 100 nM.

Turning to `Cc1nc(-c2c[nH]c3c(C#N)cccc23)cnc1O[C@@H]1CNC[C@@H]1F` [Compound 297], the IC50 is 100 to 1000 nM.

With `Cc1nc(-c2c[nH]c3c(=O)n(C)ccc23)ccc1OC1CCNC1` (centres unmarked) [Compound 300], the IC50 was over 10000 nM.

On to `Cc1nc(-c2c[nH]c3c(C#N)cccc23)cnc1OCC(C)(C)O` [Compound 301], for which the IC50 was under 100 nM.

As for `Cc1nc(-c2c[nH]c3c(C#N)cccc23)cnc1OC(C)CN` (centres unmarked) [Compound 303], the IC50 was 100 to 1000 nM.

As to `CCc1nc(-c2c[nH]c3c(C#N)cccc23)cnc1OC1CCNC1` (centres unmarked) [Compound 305], the IC50 is over 10000 nM.

As for `COc1nc(-c2c[nH]c3c(C#N)cccc23)cnc1OC1CCN(C(C)=O)C1` (centres unmarked) [Compound 306], the IC50 was in the range of 1000 to 10000 nM.

In the case of `CSc1nc(-c2c[nH]c3c(C#N)cccc23)cnc1OC1CCNC1` (centres unmarked) [Compound 307], the IC50 is over 10000 nM.

Take `Cc1nc(-c2c[nH]c3c(C#N)cccc23)cnc1OC1(C)CCNC1` (centres unmarked) [Compound 308]: the concentration for half-maximal inhibition (IC50) lay within 1000 to 10000 nM.

With `Cc1nc(-c2coc3cc(F)ccc23)cnc1N` [Compound 309], the IC50 was 100 to 1000 nM.

Consider `Cc1nc(-c2coc3c(C#N)cccc23)cnc1N` [Compound 310], for which the IC50 is over 10000 nM.

In the case of `CC(=O)N1CCC(Oc2ncc(-c3c[nH]c4cccnc34)nc2C)C1` (centres unmarked) [Compound 311], the IC50 is over 10000 nM.

On to `CC(=O)N1CCC(Oc2ncc(-c3n[nH]c4c(C#N)cccc34)nc2C)C1` (centres unmarked) [Compound 312], for which the 50% inhibitory concentration (IC50) fell in the range of 1000 to 10000 nM.

Turning to `CC(=O)N1CCC(Oc2ncc(-c3c[nH]c4c(C)cccc34)nc2C)C1` (centres unmarked) [Compound 313], the IC50 was in the range of 1000 to 10000 nM.

In the case of `Cc1cccc2c(-c3ccc4c(n3)C(C)(C)NC4=O)c[nH]c12` [Compound 314], the IC50 fell in the range of 100 to 1000 nM.

In the case of `CC1(C)NC(=O)c2ccc(-c3c[nH]c4ncccc34)nc21` [Compound 315], the IC50 was in the range of 100 to 1000 nM.

As to `COc1nc(-c2c[nH]c3c(C#N)cccc23)ccc1C(N)=O` [Compound 316], the IC50 is over 10000 nM.

In the case of `COCCN1CCC(Oc2ncc(-c3c[nH]c4c(C#N)cccc34)nc2C)C1` (centres unmarked) [Compound 317], the IC50 is 1000 to 10000 nM.

For the compound `COCC(=O)N1CCC(Oc2ncc(-c3c[nH]c4c(C#N)cccc34)nc2C)C1` (centres unmarked) [Compound 318], the IC50 is 100 to 1000 nM.

For `Cc1nc(-c2c[nH]c3c(C#N)cccc23)cnc1OC1CNCC1(F)F` (centres unmarked) [Compound 322], the half-inhibitory concentration (IC50) lay in the range of 1000 to 10000 nM.

With `CC(=O)N1CC(Oc2ncc(-c3c[nH]c4c(C#N)cccc34)nc2C)C(F)(F)C1` (centres unmarked) [Compound 323], the IC50 fell in the range of 100 to 1000 nM.

Turning to `Cc1nc(-c2c[nH]c3c(C#N)cccc23)ccc1OCC(C)(C)O` [Compound 324], the IC50 lay in the range of 1000 to 10000 nM.

For `Cc1nc(-c2c[nH]c3c(C#N)cccc23)cnc1OCC1(C)COC1` [Compound 325], the IC50 fell in the range of 100 to 1000 nM.

Regarding `Cc1nc(-c2c[nH]c3c(C#N)cccc23)cnc1N(C)CC(C)(C)O` [Compound 326], the IC50 lay within 1000 to 10000 nM.

Turning to `CCN(CC(C)(C)O)c1ncc(-c2c[nH]c3c(C#N)cccc23)nc1C` [Compound 327], the IC50 fell in the range of 1000 to 10000 nM.

On to `Cc1nc(-c2c[nH]c3c(C#N)cccc23)cnc1O[C@H]1CN[C@@H](C)C1` [Compound 328], for which the half-maximal inhibitory concentration (IC50) was over 10000 nM.

On to `Cc1nc(-c2c[nH]c3c(C#N)cccc23)cnc1O[C@H]1CN[C@H](C)C1` [Compound 329], for which the IC50 is over 10000 nM.

In the case of `Cc1nc(-c2c[nH]c3c(C#N)cccc23)cnc1O[C@@H]1CN[C@@H](C)C1` [Compound 330], the IC50 was over 10000 nM.

Consider `Cc1nc(-c2c[nH]c3c(C#N)cccc23)cnc1O[C@@H]1CN[C@H](C)C1` [Compound 331], for which the IC50 was over 10000 nM.

Turning to `Cc1nc(-c2c[nH]c3c(F)cccc23)cnc1OCC(C)(C)O` [Compound 332], the IC50 fell in the range of 1000 to 10000 nM.

For `Cc1nc(-c2c[nH]c3c(C#N)cccc23)cnc1OCC1(O)CC1` [Compound 333], the IC50 was over 10000 nM.

With `Cc1nc(-c2c[nH]c3c(C#N)cccc23)cnc1O[C@@H](C)[C@H](C)O` [Compound 334], the IC50 is 1000 to 10000 nM.

`Cc1nc(-c2c[nH]c3c(C#N)cccc23)cnc1O` [Compound 335]: the IC50 is 1000 to 10000 nM.

Take `Cc1nc(-c2csc3cc(F)ccc23)cnc1OCC(C)(C)O` [Compound 336]: the IC50 lay within 100 to 1000 nM.

As to `Cc1nc(-c2coc3c(Cl)cccc23)cnc1OCC(C)(C)O` [Compound 337], the IC50 lay within 100 to 1000 nM.

Turning to `Cc1nc(-c2coc3ccccc23)cnc1OCC(C)(C)O` [Compound 338], the IC50 was over 10000 nM.

For the compound `Cc1nc(-c2c[nH]c3c(C#N)cccc23)cnc1OCCO` [Compound 340], the IC50 is over 10000 nM.

In the case of `Cc1nc(-c2c[nH]c3c(C#N)cccc23)cnc1OCC(C)O` (centres unmarked) [Compound 341], the IC50 lay in the range of 1000 to 10000 nM.

For `CC(C)(O)COc1ncc(-c2c[nH]c3c(C#N)cccc23)nc1C1CC1` [Compound 342], the IC50 was over 10000 nM.

Regarding `Cc1nc(-c2c[nH]c3c(Cl)nccc23)cnc1OCC(C)(C)O` [Compound 343], the IC50 is over 10000 nM.
